Our source for the Activity, MIC and IC50 values is ChEMBL document CHEMBL4837212, “Cytotoxic Compounds from the Stem Bark of Two subsp. of Bersama abyssinica” (J Nat Prod, 2021).

In brackets after ≈: the same amount, converted by molar mass. Activity calls are given as the source filed them. The calls are words filed in the database; no cut-off is given here.

Experiment [1] relates to Mycolicibacterium smegmatis. Put plainly: Antibacterial activity against Mycobacterium smegmatis DSM ATCC 700084 assessed as growth inhibition by serial dilution assay. Type of experiment: functional, organism-based.
A further experiment has as its system Staphylococcus aureus. The experiment is described as follows: Antibacterial activity against Staphylococcus aureus DSM 346 assessed as growth inhibition by serial dilution assay. The experiment is classed as functional.
The subject of a further experiment is KB 3-1. The experiment is described as follows: Cytotoxicity in human KB 3-1 cells assessed as reduction in cell viability measured after 5 days by MTT assay. Type of experiment: functional, cell-based. To be noted: KB 3-1, 120 h.
The subject of experiment [2] is Escherichia coli. The experiment is described as follows: Antibacterial activity against Escherichia coli DSM 1116 assessed as growth inhibition by serial dilution assay. The experiment is classed as functional.
The test system of the next experiment is Bacillus subtilis. The experiment is described as follows: Antibacterial activity against Bacillus subtilis DSM 10 assessed as growth inhibition by serial dilution assay. Type of experiment: functional.
Experiment [3] deals with Escherichia coli. Put plainly: Antibacterial activity against Escherichia coli ATCC 8739 assessed as inhibition of bacterial growth measured after 18 hrs by Alamar blue assay. Type of experiment: functional. (In general: The colour change of resazurin is a common sign of viable cells or microbes.)

In general, MIC refers to the lowest concentration that inhibits growth of the organism. The term IC50 denotes the concentration at which inhibition is half-maximal.

`O=C(OC[C@H]1O[C@@H](OC(=O)c2cc(O)c(O)c(O)c2)[C@H](OC(=O)c2cc(O)c(O)c(O)c2)[C@@H](OC(=O)c2cc(O)c(O)c(O)c2)[C@@H]1O)c1cc(O)c(O)c(O)c1`: the result in experiment [1] was inactive.
For `CC12O[C@H]3C[C@@H](O1)[C@]1(C)[C@H]4CC[C@@]5(C)C(=CC(=O)[C@@H]5c5ccc(=O)oc5)[C@@H]4CC[C@@]1(C3)O2`, in the experiment on Staphylococcus aureus, the MIC turned out to be 152 µM (≈ 66.7 µg/mL). The outcome in experiment [1] was inactive. Moreover, in the experiment with KB 3-1, the IC50 came out at 1.4 µM.
As to `CC12O[C@H]3C[C@@H](O1)[C@]1(C)[C@H]4CC[C@]5(C)[C@@H](c6ccc(=O)oc6)[C@@H](O)C[C@]5(O)[C@@H]4CC[C@@]1(C3)O2`, the result in experiment [1] was inactive. In addition, the IC50 in the experiment with KB 3-1 turned out to be 1.6 µM.
For the compound `O=C(OC[C@H]1O[C@@H](OC(=O)c2cc(O)c(O)c(O)c2)[C@H](OC(=O)c2cc(O)c(O)c(O)c2)[C@@H](O)[C@@H]1O)c1cc(O)c(O)c(O)c1`, in experiment [1], the outcome was inactive. The minimum inhibitory concentration (MIC) with Escherichia coli [2] is 52.4 µM (≈ 33.4 µg/mL).
Turning to `COC1=C2[C@@H]3CC[C@@]45C[C@@H]6C[C@@H](OC(C)(O6)O4)[C@]5(C)[C@H]3CC[C@]2(C)[C@@H](c2ccc(=O)oc2)C1=O`, in the experiment with Staphylococcus aureus, the MIC was found to be 142 µM (≈ 66.8 µg/mL). Further, the result in experiment [1] was inactive.
With `O=c1c2cc(O)c(O)cc2oc2cc(O)c([C@H]3O[C@@H](CO)[C@H](O)[C@@H](O)[C@@H]3O)c(O)c12`, the results for the minimal inhibitory concentration (MIC) in the experiment on Bacillus subtilis, in the experiment on Escherichia coli [3] and with Staphylococcus aureus were 158 µM (≈ 66.7 µg/mL), 36.7 µM (≈ 15.5 µg/mL) and 158 µM (≈ 66.7 µg/mL), respectively. In addition, the outcome in experiment [1] was inactive.
